Test system: ccl2 promoter
Assay: ChIP of NF-κB and IRF-1 at the ccl2 promoter in primary astrocytes
Type: cell-based, mouse
Excerpt: FIGS. 4a-m. B4GALT6 regulates ccl2 transcriptional activity in astrocytes. (a) Murine ccl2 promoter. (b) Luciferase activity in 293T cells transfected with the ccl2 luciferase reporter plus one of the following constructs encoding IRF-1, p65 or an empty control vector (Empty). Results are relative to secreted alkaline phosphatase activity, presented as fold induction from empty vector. Data from three independent experiments, statistical analysis by Student's t-test. (c) ChIP analysis of the interaction of NF-κB, and IRF-1 with the ccl2 promoter in primary cultured astrocytes, pre-treated with PDMP and LacCer and activated with LPS/IFNγ (as in FIG. 3), 2 hours following LPS/IFNγ induction. (d-h) Recruitment of inflammatory monocytes (defined either as of CD11b^+ Ly6C^high or CD11b^+CD45^high cells) to the CNS of EAE NOD mice treated with PDMP or vehicle, as in (FIG. 1k), analyzed by flow cytometry and presented as cell frequency (e, g) and total cell numbers (f, h). Representative data of three independent experiments. […] (i) The frequency and number of CD11b^+ Ly6C^high monocytes as determined in the CNS 10 days after the i.c.v. injection of astrocytes-specific shRNA lentivirus as in (FIG. 3j). […] (j) monocytes were pre-treated for 1 h with PDMP, LacCer, both (LacCer+PDMP), or vehicle, and monocytes chemotaxis was measured using a transwell chamber system. […]

Compound	recruitment of NF-κB and IRF-1 to the ccl2 promoter (astrocytes activated with LPS/IFNγ, 2 hours)	recruitment of NF-κB and IRF-1 to the ccl2 promoter, LacCer added to PDMP (LacCer + PDMP, LPS/IFNγ)
CCCCCCCCCC(=O)N[C@H](CN1CCOCC1)[C@H](O)c1ccccc1 [PDMP, D-threo-1-phenyl-2-decanoylamino-3-morpholino-1-propanol]	arrested	
lactosylceramide [LacCer]		abrogated

Source: patent publication US9927437B2, “Treating neurodegenerative disease” (THE BRIGHAM AND WOMEN'S HOSPITAL, INC., priority 2013, dated 2018)
